Measured values: patent US9718833B2, “Tritoqualine hydrochloride in crystalline form and a process for obtaining same” (priority 2013, dated 2017)
Values after ≈ are worked out from the molar mass of the structure shown.

Assays:
[1] = target: T1, L-histidine decarboxylase (Homo sapiens, UniProt P19113); conditions: background statement; cited from earlier work
T1 sequence (P19113 1-662): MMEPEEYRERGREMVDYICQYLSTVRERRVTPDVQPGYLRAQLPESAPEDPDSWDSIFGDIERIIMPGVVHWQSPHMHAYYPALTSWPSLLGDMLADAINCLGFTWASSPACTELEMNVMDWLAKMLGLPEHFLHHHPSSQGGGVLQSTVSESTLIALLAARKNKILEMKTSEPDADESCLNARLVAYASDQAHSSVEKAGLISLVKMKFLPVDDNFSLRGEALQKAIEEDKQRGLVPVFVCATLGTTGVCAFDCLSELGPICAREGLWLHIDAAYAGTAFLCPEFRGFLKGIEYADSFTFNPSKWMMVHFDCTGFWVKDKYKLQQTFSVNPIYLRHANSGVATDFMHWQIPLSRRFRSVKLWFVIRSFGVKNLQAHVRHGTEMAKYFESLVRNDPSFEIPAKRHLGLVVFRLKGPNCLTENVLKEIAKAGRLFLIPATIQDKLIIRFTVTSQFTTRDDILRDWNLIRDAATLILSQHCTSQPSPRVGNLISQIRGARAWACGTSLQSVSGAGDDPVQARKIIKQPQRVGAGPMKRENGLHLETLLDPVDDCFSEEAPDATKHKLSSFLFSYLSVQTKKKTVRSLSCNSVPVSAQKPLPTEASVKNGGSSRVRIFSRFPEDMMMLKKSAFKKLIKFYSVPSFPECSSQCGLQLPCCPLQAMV

[2] = in water at room temperature; background statement; cited from earlier work
[3] = physchem; conditions: organic solvent or mixture
[4] = Solubility in ethanol; conditions: at 20° C.
[5] = hydrochloride formed in situ by addition of hydrochloric acid to tritoqualine in solution; background statement; cited from earlier work
[6] = Solubility in water
[7] = Solubility in organic solvents (ethers, alcohols, glycols, ketones); format: physicochemical

Compound | Activity as enzymatic inhibitor of L-histidine decarboxylase [1] | melting point [°C] | Solubility in water [2] [ppm] | solubility ([3]; 20 °C) [mg/mL] | solubility [3] [mg/mL] | Solubility in ethanol [4] [g/l at] | Half lifetime in an aqueous solution [5] | Behaviour in aqueous solution at pH>3.0 [6] | Solubility in alcohols and glycols compared with tritoqualine base ([7]; alcohols and glycols) | Solubility in ethers ([7]; ethers) | Solubility in primary alcohols, acetone and methyl ethyl ketone ([7]; primary alcohols, acetone, methyl ethyl ketone)
CCOc1c(N)c2c(c(OCC)c1OCC)C(C1c3c(cc4c(c3OC)OCO4)CCN1C)OC2=O (centres unmarked) [Base, 7-amino-4,5,6-triethoxy-3-(4-methoxy-6-methyl-7,8-dihydro-5H-[1,3]dioxolo[4,5-g]isoquinoline-5-yl)-3H-isobenzofuran-1-one] | very low | 184 | 100 | 2.5 (≈ 4.99 mM) | 50 (≈ 99.9 mM) |  |  |  |  |  | 
tritoqualine hydrochloride |  |  |  |  |  | >300 | a few hours | precipitates | much more soluble than tritoqualine base | very little soluble or even insoluble | soluble
